# Tests used:
# bovine brain FPTase = biological target: T1, bovine brain FPTase (Bos taurus, UniProt P29702+P49355); assay: In vitro inhibition of Ras farnesyl-protein transferase (FPTase); format: biochemical; details: Ras-CVLS, [3H]FPP, concentration giving 50% inhibition, read-out: IC50, inhibition of RAS farnesylation
# T1 construct: Famesyl-protein transferase (FPTase) from bovine brain; from tissue; host or cells: bovine brain, partially purified (DEAE-Sephacel, N-octyl agarose, mono Q)
# Experimental: The intrinsic famesyl-protein transferase (FPTase) activity of representative compounds of this invention was measured by the assay as described below:
# Famesyl-protein transferase (FPTase) from bovine brain was chromatographed on DEAE-Sephacel (Pharmacia, 0-0.8M NaCl gradient elution), N-octyl agarose (Sigma, 0-0.6M NaCl gradient elution), and a mono Q HPLC column (Pharmacia, 0-0.3M NaCl gradient). Ras-CVLS (Cys-Val-Leu-Ser) at […], […] [^3 H]FPP, and the indicated compounds were incubated with this partially purified enzyme preparation. FPTase inhibition data is a measurement of the ability of the test compound to inhibit Ras farnesylation in vitro.
# Famesyl-protein transferase (FPTase) from bovine brain was chromatographed on DEAE-Sephacel (Pharmacia, 0-0.8M NaCl gradient elution), N-octyl agarose (Sigma, 0-0.6M NaCl gradient elution), and a mono Q HPLC column (Pharmacia, 0-0.3M NaCl gradient). Ras-CVLS at 3.5 µM, 0.25 µM [3H]FPP, and the indicated compounds were incubated with either a partially purified bovine enzyme preparation or a recombinant human enzyme preparation. The FPTase data presented below in Table 1 reflects the ability of the test compound to inhibit RAS famesylation in vitro, as described in Pompliano, et al., Biochemistry 31, 3800 (1992).
# *(IC50 is the concentration of the test compound which gives 50%
# inhibition of bovine brain FPTase under the described assay conditions)
# Ras famesylation = details: cited from earlier work
SMILES,IC50 (bovine brain FPTase),Inhibition of Ras famesylation in vivo (Ras famesylation)
"C/C(=C\Cc1c(O)cc(C)c(C=O)c1O)CC[C@@]1(C)[C@H](C)C(=O)CC[C@@H]1C [Compound 1, 3-[5-[1(R),2(S),6(S)-trimethyl-5-oxocyclohexyl]-3-methyl-2-pentenyl]-2,4-di hydroxy-6-methylbenzaldehyde]",0.7 µM,–
CC(=O)O[C@@H]1CC(=O)[C@@H](C)[C@](C)(/C=C/C(C)=C/Cc2c(O)c(Cl)c(C)c(C=O)c2O)[C@H]1C [Compound 2],2.8 µM,–
CC(=O)O[C@@H]1CC(=O)[C@@H](C)[C@](C)(/C=C/C(C)=C/Cc2c(O)cc(C)c(C=O)c2O)[C@H]1C [Compound 3],5.6 µM,–
CC(/C=C/[C@@]1(C)[C@H](C)C(=O)CC[C@@H]1C)=C\Cc1c(O)cc(C)c(C=O)c1O [Compound 4],6.5 µM,–
CC(/C=C/[C@@]1(C)[C@H](C)C(=O)C=C[C@@H]1C)=C\Cc1c(O)c(Cl)c(C)c(C=O)c1O [Compound 5],15 µM,–
"C/C(=C\Cc1c(O)cc(C)c(C=O)c1O)[C@H](C[C@@]1(C)[C@H](C)C(=O)CC[C@@H]1C)OC(=O)CC(C)C [Compound 6, 3-[5-[1(R),2(S),6(S)-trimethyl-5-oxocyclohexyl]-3-methyl-4(S)-[3-methylbutanoyloxy]-2-pentenyl]-2,4-dihydroxy-6-methylbenzaldehyde]",4.6 µM,–
C/C(=C\Cc1c(O)c(Cl)c(C)c(C=O)c1O)[C@H](C[C@@]1(C)[C@H](C)C(=O)CC[C@@H]1C)OC(=O)CC(C)C [Compound 7],6.5 µM,–
CCC(=O)O[C@@H](C[C@@]1(C)[C@H](C)C(=O)CC[C@@H]1C)/C(C)=C/Cc1c(O)cc(C)c(C=O)c1O [Compound 8],2.2 µM,–
CC(=O)O[C@@H](C[C@@]1(C)[C@H](C)C(=O)CC[C@@H]1C)/C(C)=C/Cc1c(O)cc(C)c(C=O)c1O [Compound 9],13 µM,–
CC(=O)Oc1cc(C)c(C=O)c(OC(C)=O)c1C/C=C(\C)CC[C@@]1(C)[C@H](C)C(=O)CC[C@@H]1C [Compound 11],6.5 µM,–
COc1cc(C)c(C=O)c(O)c1C/C=C(C)/C=C/[C@@]1(C)[C@H](C)C(=O)CC[C@@H]1C [Compound 12],31 µM,–
"COc1cc(C)c(C=O)c(O)c1C/C=C(\C)CC[C@@]1(C)[C@H](C)C(=O)CC[C@@H]1C [Compound 13, 3-[5-[1(R),2(S),6(S)-trimethyl-5-oxocyclohexyl]-3-methyl-2-pentenyl]-2-hydroxy-4-methoxy-6-methylbenzaldehyde]",2 µM,–
Cc1cc(O)c(CCC(C)CC[C@@]2(C)[C@H](C)C(=O)CC[C@@H]2C)c(O)c1C (some centres unmarked) [Compound 14],18.6 µM,–
C/C(=C\Cc1c(O)cc(C)c(CO)c1O)CC[C@@]1(C)[C@H](C)[C@H](O)CC[C@@H]1C [Compound 15],101 µM,–
C/C(=C\Cc1c(O)cc(C)c(C)c1O)CC[C@@]1(C)[C@H](C)C(=O)CC[C@@H]1C [Compound 16],30.7 µM,–
C/C(=C\Cc1c(O)cc(C)c(C)c1O)CC[C@@]1(C)[C@H](C)[C@H](O)CC[C@@H]1C [Compound 17],> 140 µM,–
C/C(=C\Cc1c(O)cc(C)c(CO)c1O)CC[C@@]1(C)[C@H](C)C(=O)CC[C@@H]1C [Compound 18],75 µM,–
C/C(=C\Cc1c(O[Si](C)(C)C(C)(C)C)cc(C)c(C=O)c1O)CC[C@@]1(C)[C@H](C)C(=O)CC[C@@H]1C [Compound 19],> 140 µM,–
COC(=O)c1c(C)cc(O)c(C/C=C(\C)CC[C@@]2(C)[C@H](C)C(=O)CC[C@@H]2C)c1O [Compound 20],> 140 µM,–
COCOc1cc(C)c(C=O)c(OCOC)c1C/C=C(\C)CC[C@@]1(C)[C@H](C)C(=O)CC[C@@H]1C [Compound 21],> 50 µM,–
C/C(=C\Cc1c(O)cc(C)cc1O)CC[C@@]1(C)[C@H](C)C(=O)CC[C@@H]1C [Compound 24],20 µM,–
CC[C@H](C)C(=O)O[C@H]1CCC=C2C=C[C@H](C)[C@H](CC[C@@H]3C[C@@H](O)CC(=O)O3)[C@H]21 [compactin],–,Inhibition of Ras famesylation in vivo has been demonstrated
CC[C@H](C)C(=O)O[C@H]1C[C@@H](C)C=C2C=C[C@H](C)[C@H](CC[C@@H]3C[C@@H](O)CC(=O)O3)[C@H]21 [lovastatin],–,Inhibition of Ras famesylation in vivo has been demonstrated
